Results published in ChEMBL document CHEMBL1201862, “PubChem BioAssay data set” (2004).
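Step 1: Grow cells in 96-well plates. Step 2: Expose to compound for 48 hours at 5 concentrations. Step 3: Interpolate endpoints linearly; if unreached, use highest concentration. GI50 marks 50% less growth.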 Active and inactive are the calls of the source. Rule as the data show it: active = GI50 up to about 1.1 µM and inactive = higher.

Assays:
Experiment in all cases: NCI tumour cell line growth inhibition, 48 h
786-0 = system: 786-0
TK-10 = system: TK-10
UACC-257 = system: UACC-257
U-251 = system: U-251
SNB-75 = system: SNB-75
KM12 = system: KM12
NCI-H522 = system: NCI-H522
RXF 393 = system: RXF 393
NCI-H460 = system: NCI-H460
UO-31 = system: UO-31
M14 = system: M14
SK-MEL-5 = system: SK-MEL-5
HCT-15 = system: HCT-15
LXFL 529 = system: LXFL 529
OVCAR-4 = system: OVCAR-4
SF-295 = system: SF-295
HOP-92 = system: HOP-92
NCI-H23 = system: NCI-H23
T47D = system: T47D
Hs-578T = system: Hs-578T

SMILES | GI50 (786-0) | GI50 (TK-10) | GI50 (UACC-257) | GI50 (U-251) | GI50 (SNB-75) | GI50 (KM12) | GI50 (NCI-H522) | GI50 (RXF 393) | GI50 (NCI-H460) | GI50 (UO-31) | GI50 (M14) | GI50 (SK-MEL-5) | GI50 (HCT-15) [µM] | GI50 (LXFL 529) | GI50 (OVCAR-4) | GI50 (SF-295) | GI50 (HOP-92) | GI50 (NCI-H23) | GI50 (T47D) | GI50 (Hs-578T)
CCOC(=O)NC/C=C/CO | > 100 µM (inactive) | > 100 µM (inactive) | > 100 µM (inactive) | > 100 µM (inactive) | > 100 µM (inactive) | > 100 µM (inactive) | > 100 µM (inactive) | > 100 µM (inactive) | > 100 µM (inactive) | > 100 µM (inactive) | > 100 µM (inactive) | > 100 µM (inactive) | > 100 | > 100 µM (inactive) | > 100 µM (inactive) | – | – | – | – | –
CCc1cccc(C(C)C)c1NC(=O)CCl | > 100 µM (inactive) | > 100 µM (inactive) | > 100 µM (inactive) | 85.1 µM (inactive) | 37.5 µM (inactive) | > 100 µM (inactive) | 35.6 µM (inactive) | – | – | > 100 µM (inactive) | 46.3 µM (inactive) | – | > 100 | > 100 µM (inactive) | – | > 100 µM (inactive) | > 100 µM (inactive) | > 100 µM (inactive) | – | –
O=C1C2Cc3c(n(C(=O)c4ccccc4)c4ccccc34)CC2C(=O)N1c1ccc(Nc2ccc(N3C(=O)C4Cc5c(n(C(=O)c6ccccc6)c6ccccc56)CC4C3=O)cc2)cc1 (configuration not stated) | > 100 µM (inactive) | > 100 µM (inactive) | > 100 µM (inactive) | > 100 µM (inactive) | > 100 µM (inactive) | > 100 µM (inactive) | > 100 µM (inactive) | > 100 µM (inactive) | > 100 µM (inactive) | > 100 µM (inactive) | 30.9 µM (inactive) | 58.1 µM (inactive) | > 100 | – | > 100 µM (inactive) | > 100 µM (inactive) | 46 µM (inactive) | > 100 µM (inactive) | > 100 µM (inactive) | > 100 µM (inactive)
O=C(O)c1nc2cc(C(F)(F)F)ccc2nc1Nc1ccc(Cl)c(Cl)c1 | 15.9 µM (inactive) | 14.2 µM (inactive) | 20.7 µM (inactive) | 10.3 µM (inactive) | 20.5 µM (inactive) | 12.9 µM (inactive) | 15.8 µM (inactive) | 20.9 µM (inactive) | 13.5 µM (inactive) | 14.4 µM (inactive) | 13 µM (inactive) | 17.7 µM (inactive) | 12.3 | – | 21.2 µM (inactive) | 10.3 µM (inactive) | 11 µM (inactive) | 14.3 µM (inactive) | 14.1 µM (inactive) | 14 µM (inactive)
CS(=O)(=O)OC1CCN(C2(c3cccc(O)c3)CCCCC2)CC1 | 27.4 µM (inactive) | > 100 µM (inactive) | 38.4 µM (inactive) | 64.7 µM (inactive) | > 100 µM (inactive) | > 100 µM (inactive) | > 100 µM (inactive) | 64.6 µM (inactive) | 48.5 µM (inactive) | 44.7 µM (inactive) | 43 µM (inactive) | 43.5 µM (inactive) | 79.1 | – | 43 µM (inactive) | 36 µM (inactive) | 51.3 µM (inactive) | 46.5 µM (inactive) | 70.6 µM (inactive) | > 100 µM (inactive)
O=C(O)C/C(=C\c1ccccc1)C(=O)O | > 100 µM (inactive) | > 100 µM (inactive) | > 100 µM (inactive) | > 100 µM (inactive) | > 100 µM (inactive) | > 100 µM (inactive) | > 100 µM (inactive) | > 100 µM (inactive) | > 100 µM (inactive) | > 100 µM (inactive) | > 100 µM (inactive) | > 100 µM (inactive) | > 100 | – | > 100 µM (inactive) | > 100 µM (inactive) | > 100 µM (inactive) | > 100 µM (inactive) | > 100 µM (inactive) | > 100 µM (inactive)
C#CCn1c(=O)c(Cl)cn(/C(=C/C(=O)OCC)C(=O)OCC)c1=O | 1.98 µM (inactive) | 2.43 µM (inactive) | 5.07 µM (inactive) | 17.7 µM (inactive) | 14.7 µM (inactive) | 31.9 µM (inactive) | 3.38 µM (inactive) | 2.12 µM (inactive) | 32.4 µM (inactive) | 3.4 µM (inactive) | 6.98 µM (inactive) | 16.9 µM (inactive) | 6.79 | – | 17.2 µM (inactive) | > 47.5 µM (inactive) | 9.77 µM (inactive) | 18.5 µM (inactive) | 2.34 µM (inactive) | 42.9 µM (inactive)
CC[C@]12C=CCN3CC[C@@]4(c5cc(N=O)c(OC)cc5N(C)[C@H]4[C@@](O)(C(=O)OC)[C@@H]1OC(C)=O)[C@@H]32 | 42.9 µM (inactive) | > 100 µM (inactive) | > 100 µM (inactive) | 16.7 µM (inactive) | 57.7 µM (inactive) | 90.8 µM (inactive) | 18.5 µM (inactive) | 44.1 µM (inactive) | 92.3 µM (inactive) | > 100 µM (inactive) | 89.5 µM (inactive) | 37.9 µM (inactive) | 86.3 | – | > 100 µM (inactive) | 99.5 µM (inactive) | > 100 µM (inactive) | > 100 µM (inactive) | 35 µM (inactive) | 73.5 µM (inactive)
Cn1c2c3c(F)c(F)ccc3nc-2cc2ccccc21 | 0.519 µM (active) | 0.828 µM (active) | 3.83 µM (inactive) | 1.58 µM (inactive) | 0.805 µM (active) | 0.927 µM (active) | 3.03 µM (inactive) | 4.05 µM (inactive) | 1.04 µM (active) | 1.36 µM (inactive) | 2.11 µM (inactive) | 3.04 µM (inactive) | 1.49 | – | 10.1 µM (inactive) | 1.12 µM (active) | 4.76 µM (inactive) | 1.4 µM (inactive) | 0.582 µM (active) | 12.2 µM (inactive)
Cc1ccc([N+](=O)[O-])c2c(NCCC[N+](C)(C)[O-])c3ccccc3nc12 | 2.02 µM (inactive) | 11.6 µM (inactive) | 2.41 µM (inactive) | 1.32 µM (inactive) | 0.655 µM (active) | 1.79 µM (inactive) | 0.204 µM (active) | 1.35 µM (inactive) | 0.716 µM (active) | 16.1 µM (inactive) | 2.34 µM (inactive) | 0.998 µM (active) | 4.99 | – | 2.02 µM (inactive) | 3.43 µM (inactive) | 0.962 µM (active) | 0.573 µM (active) | 0.916 µM (active) | 3.24 µM (inactive)
COc1c(O)c(O)c2c(c1O)C(=O)c1cc(C)cc(O)c1C2=O | 36.7 µM (inactive) | 49.3 µM (inactive) | 48.3 µM (inactive) | 50.4 µM (inactive) | 2.97 µM (inactive) | 35.2 µM (inactive) | 6.07 µM (inactive) | > 70.8 µM (inactive) | 18.7 µM (inactive) | 23.1 µM (inactive) | 22.8 µM (inactive) | 29.9 µM (inactive) | 14.1 | – | 14.4 µM (inactive) | 21.9 µM (inactive) | 92 µM (inactive) | 29.2 µM (inactive) | 24.8 µM (inactive) | 19.6 µM (inactive)
O=C(Nc1ccccc1[N+](=O)[O-])C(=O)C(C(=O)c1ccccc1-c1ccccc1)C1OC(=O)c2ccccc21 (configuration not stated) | 14.7 µM (inactive) | 24 µM (inactive) | 16.6 µM (inactive) | 11.6 µM (inactive) | 16.9 µM (inactive) | 16.2 µM (inactive) | 12.5 µM (inactive) | 12.1 µM (inactive) | 15.9 µM (inactive) | 15.6 µM (inactive) | 15.5 µM (inactive) | 18 µM (inactive) | 15.9 | 11 µM (inactive) | 24.1 µM (inactive) | 16.6 µM (inactive) | – | 17.9 µM (inactive) | – | –
C[C@]12CC/C(=N\OCCN3CCCCC3)C=C1CCC1C2CC[C@@]2(C)C1CC[C@]2(C)O (some centres not stated) | 5.14 µM (inactive) | 12.4 µM (inactive) | 5.57 µM (inactive) | 10.7 µM (inactive) | 7.35 µM (inactive) | 10.4 µM (inactive) | 2.24 µM (inactive) | 16.2 µM (inactive) | 5.26 µM (inactive) | 11.1 µM (inactive) | 14.2 µM (inactive) | 16.6 µM (inactive) | 5 | – | 19.8 µM (inactive) | 3.5 µM (inactive) | 8.41 µM (inactive) | 13.4 µM (inactive) | 13.1 µM (inactive) | 8.61 µM (inactive)
CCC1(O)C=CC(=O)C=C1 | 18.4 µM (inactive) | 21.1 µM (inactive) | 18.8 µM (inactive) | 15.3 µM (inactive) | 33.3 µM (inactive) | 15 µM (inactive) | 10.3 µM (inactive) | 18.4 µM (inactive) | 23.4 µM (inactive) | 18.1 µM (inactive) | 17.5 µM (inactive) | 31.8 µM (inactive) | 17.9 | – | 23.1 µM (inactive) | 33.9 µM (inactive) | 31.8 µM (inactive) | 24.9 µM (inactive) | 22.7 µM (inactive) | 66.5 µM (inactive)
CCN(CC)c1c(N(CC)CC)c(=O)c1=O | 5.35 µM (inactive) | 2.82 µM (inactive) | 9.48 µM (inactive) | 22.9 µM (inactive) | 30.3 µM (inactive) | 22.6 µM (inactive) | 2.14 µM (inactive) | 11.3 µM (inactive) | 39.5 µM (inactive) | 5.32 µM (inactive) | 16.7 µM (inactive) | 17.4 µM (inactive) | 3.67 | – | 18.9 µM (inactive) | > 88.9 µM (inactive) | 3.94 µM (inactive) | 10.6 µM (inactive) | 3.18 µM (inactive) | 21.7 µM (inactive)
CC(=O)OC1CCC2C(=CCC3C2(C)C(=O)CC2(C)C(C4(C)OC(C(C)C)=CC4=O)C(O)CC32C)C1(C)C (configuration not stated) | > 100 µM (inactive) | – | – | 39.4 µM (inactive) | 28.4 µM (inactive) | > 10 µM (inactive) | 35.5 µM (inactive) | – | 27 µM (inactive) | 40.3 µM (inactive) | 23.3 µM (inactive) | 23.5 µM (inactive) | 30.2 | 31.3 µM (inactive) | – | – | 41.3 µM (inactive) | 63.2 µM (inactive) | – | –
